From publication PMC6222820, “Synthesis of New Triarylpyrazole Derivatives Possessing Terminal Sulfonamide Moiety and Their Inhibitory Effects on PGE2 and Nitric Oxide Productions in Lipopolysaccharide-Induced RAW 264.7 Macrophages” (Molecules : A Journal of Synthetic Chemistry and Natural …, 2018)
“Also recorded” adds a separate entry of the source.

How the values were obtained:
iNOS = target: T1, iNOS (Mus musculus, UniProt P29477); assay: iNOS enzyme activity in LPS-pretreated cells (Griess reaction); type: cell-based; details: 5, 10, or 20 μM for 12 h after LPS (1 µg/mL) 12 h
T1 construct: endogenous in cells; host or cells: RAW 264.7 macrophages, LPS-stimulated
Protocol: Figure 4 Effect of compounds 1b, 1d, 1g, 2a, and 2c on iNOS activity. Following pretreatment with lipopolysaccharide (LPS, 1 µg/mL) for 12 h and wash with phosphate buffer solution (PBS), cells were treated with 1g (5, 10, or 20 μM) for 12 h N^6-(1-Iminoethyl)-L-lysine. (L-NIL) (40 μM) was used as the positive control in the assay. Levels of NO in culture media were quantified using the Griess reaction assay. Data are presented as the means ± SD of three independent experiments. # p < 0.05 versus the control cells; *** p < 0.001 versus LPS-stimulated cells; * statistical significances were compared using ANOVA and Dunnett’s post hoc test.

[1] = MTT assay for cell viability / cytotoxicity; type: cell-based; details: mouse, RAW 264.7 macrophages, means ± SD of three independent experiments
Protocol: (§1) In addition to NO inhibition, the cytotoxic activity of compounds 1a–i, 2a–i, 3a–h, and 4a–h in RAW 264.7 macrophages were measured using the 3-(4,5-dimethylthiazol-2-yl)-2,5-diphenyltetrazolium bromide (MTT) assay to check whether the effects on the production of NO was caused by nonspecific cytotoxicity.
(§2) Cell culture and sample treatment were performed as reported in the literature. The 3-(4,5-dimethylthiazol-2-yl)-2,5-diphenyltetrazolium bromide (MTT) assay for cell viability followed the procedure previously described in the literature. Nitrite determination was carried as described in the literature, and the PGE2 assay was carried as previously described.

[2] = system: LPS-induced RAW 264.7 macrophages; assay: PGE2 production inhibition in LPS-induced RAW 264.7 macrophages; type: cell-based; details: means ± SD of three independent experiments; for inhibition at 1 µM: RAW264.7, 1 μM; for inhibition at 5 µM: RAW264.7, 5 μM; for inhibition at 10 µM: RAW264.7, 10 μM
Protocol: Compounds 1b, 1g, 2a, and 2c were able to inhibit more than 50% of the prostaglandin production at a dose 5 μM. The five compounds were able to reduce PGE2 production by over 75% at a dose of 10 μM.
as §2

[3] = system: inducible nitric oxide synthase (iNOS); assay: LPS-induced iNOS protein expression (SDS-PAGE / immunoblot of cellular lysates); type: cell-based; details: 20 µM; pretreatment 1 h, then LPS (1 μg/mL) 24 h; β-actin reference
Protocol: As a result of their activity against both NO and PGE2 production and low cellular toxicity, compounds 1b, 1d, 1g, 2a, and 2c were tested for their inhibitory effect on the expression of both iNOS and COX-2. The cellular lysates were prepared from the with- and without-pretreatment tested compounds (5, 10, 20 μM) for one hour and then with LPS (1 μg/mL) for 24 h, using β-actin as a reference. […] Compound 1g might express its inhibitory effect on NO production mainly through inhibition of iNOS protein expression and partially through inhibition of iNOS enzyme activity.
Figure 3 Inhibitory activity of compounds 1b, 1d, 1g, 2a, and 2c on inducible nitric oxide synthase (iNOS) and Cyclooxygenase 2 (COX-2) Cellular lysates were prepared from the with/without pretreatment tested compound (5, 10, and 20 μM) for one hour and then with LPS (1 μg/mL) for 24 h. Total cellular proteins were resolved by sodium dodecyl sulphate-polyacrylamide gel electrophoresis (SDS-PAGE), transferred to Polyvinylidene fluoride (PVDF) membranes, and detected with specific iNOS and COX-2 antibodies. β-actin was used as an internal control.

[4] = system: LPS-induced RAW 264.7 macrophages; assay: Nitric oxide (NO) production inhibition in LPS-induced RAW 264.7 macrophages (nitrite determination); type: cell-based; details: for inhibition at 1 µM: RAW264.7, 1 µM; for inhibition at 1 µM / inhibition at 5 µM / inhibition at 10 µM / Nitric Oxide % Inhibition: LPS-induced RAW 264.7 macrophages; for inhibition at 5 µM: RAW264.7, 5 µM; for inhibition at 10 µM: RAW264.7, 10 µM; for IC50: means ± SD of three independent experiments, read-out: NO (IC50)
Protocol: The ability of a certain molecule to inhibit the production of inflammatory mediator(s) is one of successful approach to treatment both chronic and acute inflammation.
as §2

RAW 264.7 macrophages = assay: MTT assay for cell viability / cytotoxicity; type: cell-based; details: means ± SD of three independent experiments
Protocol: as §1, §2

[5] = Mus musculus, RAW264.7, LPS-induced RAW 264.7 macrophages
[6] = Mus musculus, RAW264.7, nitric oxide production

Row | melting point [°C] | IC50 [2, 5] [µM] | IC50 [4, 6] [µM] | IC50 ([2]; LPS-induced RAW 264.7 macrophages) [µM] | Compound | Inhibition of iNOS enzyme activity (iNOS) | IC50 [1] [µM] | inhibition at 1 µM ([2]; Mus musculus) [%] | inhibition at 5 µM ([2]; Mus musculus) [%] | inhibition at 10 µM ([2]; Mus musculus) [%] | Inhibition of iNOS expression [3] | inhibition at 1 µM ([4]; Mus musculus) [%] | inhibition at 5 µM ([4]; Mus musculus) [%] | inhibition at 10 µM ([4]; Mus musculus) [%] | IC50 ([4]; nitric oxide production) [µM] | IC50 (RAW 264.7 macrophages) [µM] | Nitric Oxide % Inhibition ([4]; 1 µM) [%] | Nitric Oxide % Inhibition ([4]; 5 µM) [%] | Nitric Oxide % Inhibition ([4]; 10 µM) [%]
1 | 155 to 156 | 5.06 ± 0.21 | 8.2 |  | COc1cccc(-c2nn(-c3ccccc3)cc2-c2ccnc(NCCNS(=O)(=O)c3ccc(F)cc3)c2)c1 [Compound 1d, 4-Fluoro-N-(2-((4-(3-(3-methoxyphenyl)-1-phenyl-1H-pyrazol-4-yl)pyridin-2-yl)amino)ethyl)benzenesulfonamide] | slightly inhibited iNOS enzyme activity in a dose-dependent manner | 169.2 ± 1.64 | 10.3 ± 0.81 | 49.6 ± 1.25 | 85.8 ± 2.64 | partial inhibitory effect; also recorded: potential iNOS inhibitory effect | 19.79 ± 0.14 | 29.4 ± 0.77 | 61.3 ± 1.33 | 8.23 ± 0.32 |  |  |  | 
2 | 136 to 138 | 4.72 | 7.9 ± 0.41 | 4.75 ± 0.25 | COc1cccc(-c2nn(-c3ccccc3)cc2-c2ccnc(NCCNS(=O)(=O)c3ccc(Br)cc3)c2)c1 [Compound 1b, 4-Bromo-N-(2-((4-(3-(3-methoxyphenyl)-1-phenyl-1H-pyrazol-4-yl)pyridin-2-yl)amino)ethyl)benzenesulfonamide] | slightly inhibited iNOS enzyme activity in a dose-dependent manner | 254.2 ± 2.54 | 16.2 ± 0.79 | > 50 | 76.9 ± 1.34 | partial inhibitory effect; also recorded: potential iNOS inhibitory effect | 12.05 ± 0.11 | 24.2 ± 0.98 | 68.7 ± 2.47 |  |  |  |  | 
3 |  |  |  |  | COc1cccc(-c2nn(-c3ccccc3)cc2-c2ccnc(NCCNS(=O)(=O)c3ccc(C)cc3)c2)c1 [Compound 1f, N-(2-((4-(3-(3-Methoxyphenyl)-1-phenyl-1H-pyrazol-4-yl)pyridin-2-yl)amino)ethyl)-4-methyl benzenesulfonamide] |  |  |  |  |  |  |  |  |  | 9.42 ± 0.12 | 291 ± 1.12 | 16.29 ± 0.10 | 26.54 ± 0.65 | 53.09 ± 2.10
